Laboratory results taken from patent publication US20070259959A1, “Ppar Agonists for the Treatment of Hcv Infection” (priority 2003, published 2007).

Tested on: HCV
Test: Inhibition of HCV infection of cultured human hepatocytes (quantitative RT-PCR of HCV RNA)
Format: cell-based
Settings: cultured human hepatocytes infected with infectious human serum; fenofibric acid tested at 50 μM and 500 μM; HCV RNA copies/350,000 cells four days after infection; 0.5% DMSO
Description: Isolated human hepatocytes from surgical liver resection were seeded in 24 well microplates at the density of 3×10^5 cells/well. Cells were allowed to attach and recover 24 hours and then medium was replaced with a fresh one containing different concentrations of fenofibric acid (50 μM and 500 μM). Hepatocytes were incubated 24 hours with the indicated amounts of fenofibric acid, then medium was replaced with fresh one containing the same amounts of fenofibric acid and a fixed amount (100 μl) of an infectious human serum from a patient chronically infected with HCV. Cells were incubated 18 hours with the virus to allow infection, then washed and incubated for four days. Total RNA was extracted and viral replication was measured by quantitative RT-PCR.
Typically, 10^4 to 10^5 copies of genomes per well are detected after four days from infection. To be sure that the measured viral RNA derived from active replication, a small molecule inhibitor of the viral replicase was included as a positive control.
Viral replication was measured on total RNA by quantitative PCR and expressed as number of HCV copies/350,000 cells. The experiment was performed in triplicate wells and values are shown with standard deviations. Fenofibric acid was dissolved in DMSO and tested at 50 μM and 500 μM. […]

SMILES: CC(C)(Oc1ccc(C(=O)c2ccc(Cl)cc2)cc1)C(=O)O [fenofibric acid]
- reduction of HCV infectivity: up to 90%
